Measured values taken from patent US8865894B2, “Oxazolidin-2-one compounds and uses thereof” (Novartis AG, priority 2012, dated 2014).
Where two headings read alike, the source gives them in different places.

How the values were obtained:
human PI3Kα = target: T1, human PI3Kα (Homo sapiens, UniProt P42336); test: Biochemical PI3Kalpha (KinaseGlo luminescent kinase assay); settings: biochemical, 1 μM ATP, mean of n measurements
T1 construct: made in house
Procedure: (§1) Test compounds were dissolved in DMSO (10 mM) and transferred into 1.4 mL flat bottom or V-shaped Matrix tubes carrying a unique 2D matrix chip by individual Novartis compound hubs. The numbers of these chips were distinctively linked to Novartis Pharma Numbers. The stock solutions were stored at −20° C. if not used immediately. For the test procedure the vials were defrosted and identified by a scanner whereby a working sheet was generated that guided the subsequent working steps.
(§2) Compounds were either manually diluted in DMSO for individual experiments (96 wells enabling 10 cpds at 8 (single points) concentrations) as described in or prepared as described below if tested for profiling in 384-wells. This format enabled the assay of maximally 40 individual test compounds at 8 concentrations (single points) including 4 reference compounds. The dilution protocol included the production of “pre-dilution plates”, “master plates” and “assay plates”.
(§3) 96 polypropylene well plates were used as pre-dilution plates. A total of 4 pre-dilution plates were prepared including 10 test compounds each on the plate positions A1-A10, one standard compound at A11 and one DMSO control at A12. Programs have been written to run these pipetting steps on the HamiltonSTAR robots.
(§4) Identical “assay plates” were then prepared by pipetting 50 nL each of compound dilutions of the “master plates” into 384-well “assay plates”. The compounds were mixed with 4.5 μL of assays components plus 4.5 μL enzyme corresponding to a 1:181 dilution enabling the final concentration of 10, 3.0, 1.0, 0.3, 0.1, 0.03, 0.01 and 0.003 μM, respectively. The preparation of the “master plates” was handled by the Matrix PlateMate Plus robot and replication of “assay plates” by the HummingBird robot.
(§5) Catalytically active human PI3Kα, PI3Kβ, PI3Kδ, and mTOR were cloned, expressed and purified as described (Maira S M, Stauffer F, Brueggen J, Furet P, Schnell C, Fritsch C, Brachmann S, Chène P, de Pover A, Schoemaker K, Fabbro D, Gabriel D, Simonen M, Murphy L, Finan P, Sellers W, García-Echeverría C (2008), Mol Cancer Ther. 7:1851-63 and Maira S M, Pecchi S, Brueggen J, Huh K, Schnell C, Fritsch C, Nagel T, Wiesmann M, Brachmann S, Dorsch M, Chène P, Schoemaker K, De Pover A, Menezes D, Fabbro D, Sellers W, García-Echeverría C, Voliva C F (2011), Mol. Cancer Ther. accepted).
(§6) The luminescence-based ATP detection reagent KinaseGlo was obtained from Promega, (Cat. No. V6714, Lot No. 236161) through Catalys, Wallisellen, Switzerland. (L-alpha-phosphatidylinositol (PI), Liver, Bovine) were obtained from Avanti Polar Lipid (Cat. No. 840042C, Lot#LPI-274), Phosphatidylinositol-4,5-bisphosphate (PIP(4,5)2 (Avanti, Cat. No. 840046×) or L-α-phosphatidylinositol (PI) was obtained from Avanti Polar Lipid (Cat. No. 840042C, Lot#LPI-274). L-α-Phosphatidylserine (PS) was from Avanti Polar Lipid (Cat. No. 840032C), n-OctylGlucoside Avanti Polar Lipid (Cat. No. 10634425001). Luminescence is a well established readout to determine ATP concentrations and can thus be used to follow the activity of many kinases regardless of their substrate. The Kinase Glo Luminescent Kinase Assay (Promega, Madison/Wis., USA) is a homogeneous HTS method of measuring kinase activity by quantifying the amount of ATP remaining in solution following a kinase reaction.
(§7) 50 nL of compound dilutions were dispensed onto black 384-well low volume Non Binding Styrene (NBS) plates (Costar Cat. No. NBS#3676) as described in section 8.2. L-α-phosphatidylinositol (PI), provided as 10 mg/ml solution in methanol, was transferred into a glass tube and dried under nitrogen beam. It was then resuspended in 3% OctylGlucoside by vortexing and stored at 4° C. 5 μL of a mix of PI/OG with the PI3Ka and Pi3Kb subtypes were added. Kinase reactions were started by addition of 5 μl of ATP-mix containing in a final volume 10 μL 10 mM TRIS-HCl pH 7.5, 3 mM MgCl2, 50 mM NaCl, 0.05% CHAPS, 1 mM DTT and 1 μM ATP, and occurred at room temperature.

human PI3Kβ = target: T2, human PI3Kβ (Homo sapiens, UniProt P42338); test: Biochemical PI3Kbeta (KinaseGlo luminescent kinase assay); settings: 1 μM ATP, mean of n measurements, read-out: PI3Kb/ IC50
T2 construct: made in house
Procedure: as §1, §2, §3, §4, §5, §6, §7

mTOR = target: T3, mTOR (Mus musculus, UniProt Q9JLN9); test: Cellular assay mTOR (phospho-T389 S6K1 SureFire in TSC1-/- MEF cells); assay type: cell-based
T3 construct: endogenous in cells; host or cells: TSC1-/- MEF (mouse embryo fibroblasts)
Source text: A cell based assay (384-well format) was developed for determination of compound effects on cellular mTOR kinase activity in MEF (mouse embryo fibroblasts) cells derived from mice lacking TSC1 (Tuberosclerosis Complex1) a potent suppressor of mTOR kinase activity. Due to lack of TSC1 the mTOR kinase is constitutively activated resulting in permanent phosphorylation of Thr 389 of S6 kinase 1 (S6K1) which is one of the downstream targets of mTOR.
Using a SureFire Kit that enables to determine the phosphorylation of Thr389 on the S6K1 an assay was developed, validated and implemented in the Alpha-Screen format that allows the quantitative determination of phospho-T389 of S6K1 in cell lysates. […] These were in agreement with those values obtained with the biochemical mTOR ATP-binding assay enabling a quantitative comparison of potency of mTOR inhibitors.
TSC1−/− MEFs cells (Kwiatkowski, D. J., Zhang, H., Bandura, J. L., Heiberger, K. M., Glogauer, M., el-Hashemite, N., and Onda, H. (2002) Hum. Mol. Genet. 11, 525-534) were cultured in DMEM high glucose medium supplemented with 10% FBS (Invitrogen), 2 mM Glutamine and 1% (w/v) Penicillin/Streptomycin at 37° C., 5% CO2.
The SureFire kit for determination of P70S6kinase phosphorylation was purchased from Perkin Elmer (p70S6K p-T389, #TGR70S50K) and the assay was performed according to the instructions of the supplier and according to the generic method for SureFire assays. Shortly, 5 μL cell lysate per well were transferred to 384-well white proxy-plates (for luminescent readout) and mixed with […] and […] (final volume: 12 μL). After 3 h incubation in the dark at RT luminescence was read with the Envision Reader (Perkin Elmer). Untreated cells were used as control (high control) and cells treated with 3 μM BEZ235 were used as low control. The assay window between the signals obtained for the high and the low controls were defined as 100% and compound effects were expressed as percent inhibition. IC50 values were calculated from the dose response curves by graphical extrapolation.

[1] = TSC1-/- MEF cells, read-out: mTOR S6K(T389)_TSC1ko/ IC50
[2] = second value / 3 of the 4 values / 3 of the 5 values as per footnote, read-out: mTOR S6K(T389)_TSC1ko IC50, further individual values (footnotes)

T1 sequence (P42336 with tags, fused parts or gaps limits assumed): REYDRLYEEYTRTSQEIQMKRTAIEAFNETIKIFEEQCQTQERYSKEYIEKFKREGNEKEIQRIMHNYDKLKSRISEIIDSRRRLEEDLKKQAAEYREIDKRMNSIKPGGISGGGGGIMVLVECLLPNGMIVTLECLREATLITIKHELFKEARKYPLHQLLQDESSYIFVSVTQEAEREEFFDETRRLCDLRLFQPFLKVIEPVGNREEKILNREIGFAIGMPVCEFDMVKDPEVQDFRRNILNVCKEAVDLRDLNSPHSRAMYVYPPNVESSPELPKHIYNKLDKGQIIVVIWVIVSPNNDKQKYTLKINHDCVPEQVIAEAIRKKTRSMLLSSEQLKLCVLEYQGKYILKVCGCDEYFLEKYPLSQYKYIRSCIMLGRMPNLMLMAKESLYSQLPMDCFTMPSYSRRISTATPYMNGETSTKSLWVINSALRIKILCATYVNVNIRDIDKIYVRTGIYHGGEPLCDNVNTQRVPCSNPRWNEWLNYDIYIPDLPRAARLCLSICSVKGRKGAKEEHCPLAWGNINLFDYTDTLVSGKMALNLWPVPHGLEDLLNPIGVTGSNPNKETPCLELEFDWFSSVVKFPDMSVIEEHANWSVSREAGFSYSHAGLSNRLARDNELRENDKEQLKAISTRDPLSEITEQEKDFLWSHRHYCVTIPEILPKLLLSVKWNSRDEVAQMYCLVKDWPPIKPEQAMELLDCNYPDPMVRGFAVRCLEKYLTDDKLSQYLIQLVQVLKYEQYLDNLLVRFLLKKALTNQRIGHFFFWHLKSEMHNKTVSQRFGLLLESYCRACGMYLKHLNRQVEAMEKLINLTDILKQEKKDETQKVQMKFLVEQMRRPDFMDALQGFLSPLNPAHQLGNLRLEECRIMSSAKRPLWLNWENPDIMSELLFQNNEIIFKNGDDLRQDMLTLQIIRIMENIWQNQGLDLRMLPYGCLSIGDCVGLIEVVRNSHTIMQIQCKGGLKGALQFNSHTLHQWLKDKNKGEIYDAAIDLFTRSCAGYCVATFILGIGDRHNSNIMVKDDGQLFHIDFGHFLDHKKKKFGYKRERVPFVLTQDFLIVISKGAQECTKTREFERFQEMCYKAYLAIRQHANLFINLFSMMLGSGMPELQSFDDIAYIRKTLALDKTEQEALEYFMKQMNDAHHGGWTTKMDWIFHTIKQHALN
T2 sequence (P42338 2-1070 limits assumed): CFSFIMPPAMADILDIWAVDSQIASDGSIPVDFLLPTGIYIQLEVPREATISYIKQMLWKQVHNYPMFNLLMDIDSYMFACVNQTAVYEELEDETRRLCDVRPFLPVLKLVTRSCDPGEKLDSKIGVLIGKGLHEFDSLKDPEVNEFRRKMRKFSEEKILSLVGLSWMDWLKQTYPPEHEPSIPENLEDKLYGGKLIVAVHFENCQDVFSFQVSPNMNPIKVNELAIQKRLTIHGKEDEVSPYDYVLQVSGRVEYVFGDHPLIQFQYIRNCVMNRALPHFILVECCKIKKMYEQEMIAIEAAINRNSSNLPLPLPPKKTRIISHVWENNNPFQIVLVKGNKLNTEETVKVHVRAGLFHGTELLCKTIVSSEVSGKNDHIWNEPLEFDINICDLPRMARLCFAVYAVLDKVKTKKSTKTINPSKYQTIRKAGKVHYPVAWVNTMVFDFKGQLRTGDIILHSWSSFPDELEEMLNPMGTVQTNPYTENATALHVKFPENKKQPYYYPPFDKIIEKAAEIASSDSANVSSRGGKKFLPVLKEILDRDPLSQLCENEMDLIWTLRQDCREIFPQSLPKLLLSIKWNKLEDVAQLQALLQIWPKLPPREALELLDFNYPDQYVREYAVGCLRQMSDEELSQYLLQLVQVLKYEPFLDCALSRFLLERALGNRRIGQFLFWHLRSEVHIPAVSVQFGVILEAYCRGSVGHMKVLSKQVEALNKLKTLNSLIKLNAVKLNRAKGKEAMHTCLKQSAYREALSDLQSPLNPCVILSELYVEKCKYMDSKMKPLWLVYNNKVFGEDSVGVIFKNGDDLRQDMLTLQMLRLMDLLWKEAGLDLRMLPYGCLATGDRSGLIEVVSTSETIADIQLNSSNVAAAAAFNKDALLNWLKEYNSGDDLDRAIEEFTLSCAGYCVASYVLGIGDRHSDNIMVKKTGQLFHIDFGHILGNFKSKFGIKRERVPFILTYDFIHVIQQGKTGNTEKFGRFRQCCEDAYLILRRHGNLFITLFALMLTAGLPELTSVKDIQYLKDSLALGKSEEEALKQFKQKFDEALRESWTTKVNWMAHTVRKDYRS

SMILES | PI3Ka/ IC50 (human PI3Kα) [umol I-1] | IC50 (human PI3Kβ) [nM] | IC50 (mTOR; [1]) [nM] | IC50 (human PI3Kα; read-out: PI3Ka/ IC50) [nM] | IC50 (mTOR; [2]) [nM]
COC[C@H]1COC(=O)N1c1cc(-c2cnc(N)nc2C(F)(F)F)nc(N2CCOCC2)n1 [Example 5, (S)-3-(2′-Amino-2-morpholin-4-yl-4′-trifluoromethyl-[4,5′]bipyrimidinyl-6-yl)-4-methoxymethyl-oxazolidin-2-one] | 0.011 | 11 | 1410 |  | 
C[C@H]1OC(=O)N(c2cc(-c3cnc(N)nc3C(F)(F)F)nc(N3CCOCC3)n2)[C@H]1CO [Example 18, (4S,5R)-3-(2′-Amino-2-morpholin-4-yl-4′-trifluoromethyl-[4,5′]bipyrimidinyl-6-yl)-4-hydroxymethyl-5-methyl-oxazolidin-2-one] | 0.009 | 4 | 794 |  | 
Nc1ncc(-c2cc(N3C(=O)O[C@H]4CCCC[C@@H]43)nc(N3CCOCC3)n2)c(C(F)(F)F)n1 [Example 4, (3aS,7aS)-3-(2′-Amino-2-morpholin-4-yl-4′-trifluoromethyl-[4,5′]bipyrimidinyl-6-yl)-hexahydro-benzooxazol-2-one] | 0.014 | 7 | 647 |  | 
Nc1ncc(-c2cc(N3C(=O)OC4C(O)CCC43)nc(N3CCOCC3)n2)c(C(F)(F)F)n1 (single isomer, unassigned) [Example 22A] |  | 86 | 2120 | 7 | 
C[C@H]1OC(=O)N(c2cc(-c3cnc(N)nc3C(F)(F)F)nc(N3CCOCC3)n2)[C@H]1COC=O [Example 12, Formic acid (4S,5R)-3-(2′-amino-2-morpholin-4-yl-4′-trifluoromethyl-[4,5′]bipyrimidinyl-6-yl)-5-methyl-2-oxo-oxazolidin-4-ylmethyl ester] | 0.030 | 49 | 1100 |  | 
C[C@H]1[C@@H](CCO)OC(=O)N1c1cc(-c2cnc(N)nc2C(F)(F)F)nc(N2CCOCC2)n1 [Example 23, (4S,5R)-3-(2′-Amino-2-morpholino-4′-(trifluoromethyl)-[4,5′-bipyrimidin]-6-yl)-5-(2-hydroxyethyl)-4-methyloxazolidin-2-one] | 0.006 | 11 | 1110 |  | 
[2H]C1([2H])OC([2H])([2H])C([2H])([2H])N(c2nc(-c3cnc(N)nc3C(F)(F)F)cc(N3C(=O)O[C@H](C)[C@@H]3CO)n2)C1([2H])[2H] [Example 8] | 0.013 | 4 | 994 |  | 
CC1(C)OC(=O)N(c2cc(-c3cnc(N)nc3C(F)(F)F)nc(N3CCOCC3)n2)[C@H]1CO [Example 2, (S)-3-(2′-Amino-2-morpholin-4-yl-4′-trifluoromethyl-[4,5′]bipyrimidinyl-6-yl)-4-hydroxymethyl-5,5-dimethyl-oxazolidin-2-one] | 0.023 | 20 |  |  | 
C[C@@H]1OC(=O)N(c2cc(-c3cnc(N)nc3C(F)(F)F)nc(N3CCOCC3)n2)[C@H]1CO [Example 6] | 0.013 | 7 | 574 |  | 
C[C@H]1[C@H](CO)OC(=O)N1c1cc(-c2cnc(N)nc2C(F)(F)F)nc(N2CCOCC2)n1 [Example 15, (4S,5R)-3-(2′-Amino-2-morpholin-4-yl-4′-trifluoromethyl-[4,5′]bipyrimidinyl-6-yl)-5-hydroxymethyl-4-methyl-oxazolidin-2-one] | 0.026 | 21 | 727 |  | > 2270
C[C@H]1COC(=O)N1c1cc(-c2cnc(N)nc2C(F)(F)F)nc(N2CCOCC2)n1 [Example 1, (S)-3-(2′-Amino-2-morpholin-4-yl-4′-trifluoromethyl-[4,5′]bipyrimidinyl-6-yl)-4-methyl-oxazolidin-2-one] | 0.008 | 6 | 964 |  | 
C[C@H]1COCCN1c1nc(-c2cnc(N)nc2C(F)(F)F)cc(N2C(=O)OC[C@@H]2C)n1 [Example 13, (S)-3-[2′-Amino-2-((S)-3-methyl-morpholin-4-yl)-4′-trifluoromethyl-[4,5′]bipyrimidinyl-6-yl]-4-methyl-oxazolidin-2-one] | 0.203 | 146 | 1950 |  | 
Nc1ncc(-c2cc(N3C[C@H](CO)OC3=O)nc(N3CCOCC3)n2)c(C(F)(F)F)n1 [Example 20, (R)-3-(2′-Amino-2-morpholin-4-yl-4′-trifluoromethyl-[4,5′]bipyrimidinyl-6-yl)-5-hydroxymethyl-oxazolidin-2-one] | 0.024 | 11 | > 2270 |  | 
Nc1ncc(-c2cc(N3C(=O)OC[C@@H]3CCO)nc(N3CCOCC3)n2)c(C(F)(F)F)n1 [Example 9, (S)-3-(2′-Amino-2-morpholin-4-yl-4′-trifluoromethyl-[4,5′]bipyrimidinyl-6-yl)-4-(2-hydroxy-ethyl)-oxazolidin-2-one] | 0.384 | 41 | 1260 |  | > 2270
C[C@H]1CN(c2cc(-c3cnc(N)nc3C(F)(F)F)nc(N3CCOCC3)n2)C(=O)O1 [Example 16, (S)-3-(2′-Amino-2-morpholin-4-yl-4′-trifluoromethyl-[4,5′]bipyrimidinyl-6-yl)-5-methyl-oxazolidin-2-one] | 0.030 | 20 | 942 |  | 
